# Measurements published in patent US20110130413A1, “SUBSTITUTED QUINAZOLINES” (Shire LLC, priority 2008, published 2011).
# Where “and” joins values, the source holds several entries; their conditions need not be identical. Equal values may be shown once. Marks after values point to notes of the source that are not given here.
# Assays:
# PDEIII = PDEIII inhibition; type: biochemical; conditions: more potent than anagrelide itself
# Solubility = type: physicochemical
# [1] = Comparative bioavailability study in the dog; type: in vivo
# Source text: The potential benefit of improved water solubility on the absorption of these open-ring analogues was shown in a comparative bioavailability study in the dog. Using the unsubstituted ethyl-5,6-dichloro-3,4-dihydro-2-(1H)-iminoquinazoline-3-acetate HBr as a model compound, a comparison was made of the systemic availability of anagrelide when given as this compound or as anagrelide itself in equimolar doses ([…]).
# [2] = Conversion of ring open prodrug to anagrelide in human plasma (LC/MS-MS); type: in vitro ADME; conditions: human plasma spiked 100 ng/mL, room temperature, first point of measurement (immediately after mixing)
# Experimental: Such prodrugs are likely to be extremely rapidly and completely cyclised in plasma to the closed ring 3-alkylanagrelide analogues. […] Human plasma was spiked with anagrelide prodrug (final concentration 100 ng/mL). Immediately after mixing, and at 15, 30, 45 and 60 minutes afterward samples were analysed for anagrelide prodrug and anagrelide.
# [3] = male dogs, single oral (capsule), anagrelide 6.1 mg/kg or ester prodrug 7.5 mg/kg, individual dogs
# [4] = male dogs, single oral (capsule), anagrelide 6.1 mg/kg or ester prodrug 7.5 mg/kg, individual dogs, listed as Ester prodrug of anagrelide, HBr
# [5] = male dogs, single oral (capsule), anagrelide 6.1 mg/kg or ester prodrug 7.5 mg/kg, median
compound,measurement,setting,value
O=C1NC2=Nc3ccc(Cl)c(Cl)c3CN2C1O (stereo not drawn) [3-hydroxyanagrelide],potency as an inhibitor of PDEIII relative to anagrelide,PDEIII,~40 fold
"O=C1CN2Cc3c(ccc(Cl)c3Cl)N=C2N1 [anagrelide, 6,7-dichloro-1,5-dihydroimidazo[2,1-b]-quinazolin-2(3H)-one]",solubility,"Solubility; aqueous solution, aqueous buffer, at pH 11.4",~1000 µg/mL
same,solubility,"Solubility; aqueous solution, aqueous buffer, pH range of 4-8",< 10 µg/mL
same,solubility,"Solubility; simulated gastric fluid, in 0.1M HCl",~170 µg/mL
same,Tmax of anagrelide,[1]; [3],2 h
same,k of anagrelide,[1]; [3],0.4459 ^c hours^−1 and 0.3119 ^c hours^−1 and 0.1953 ^d hours^−1
"Br.CCOC(=O)CN1Cc2c(ccc(Cl)c2Cl)NC1=N [ethyl-5,6-dichloro-3,4-dihydro-2-(1H)-iminoquinazoline-3-acetate HBr]",prodrug remaining in human plasma (conversion to anagrelide),[2],no prodrug could be found
same,"Cmax for anagrelide, range over dogs","[1]; dog, oral, equimolar doses",170-418 ngmL^−1
same,"t½ of 3-hydroxy anagrelide, calculated as ln2/(mean rate constant)","[1]; male dogs, single oral (capsule), anagrelide 6.1 mg/kg or ester prodrug 7.5 mg/kg",2.1 ^e hours
same,AUCinfin of 3-hydroxy anagrelide,[1]; [4],1290 ^c ng · h/mL
same,AUCinfin of anagrelide,[1]; [4],1440 ^d ng · h/mL
same,k of 3-hydroxy anagrelide,[1]; [4],0.1235 ^c hours^−1
same,k of anagrelide,[1]; [4],0.1789 ^d hours^−1
same,t½ of 3-hydroxy anagrelide,[1]; [4],5.6 ^c hours
same,t½ of anagrelide,[1]; [4],3.9 ^d hours
same,"Tmax of 3-hydroxy anagrelide, median",[1]; [5],3.5 ^b hours
same,"Tmax of anagrelide, median",[1]; [5],3.5 ^b hours
same,"t½ of anagrelide, calculated as ln2/(mean rate constant)","[1]; male dogs, single oral (capsule), ester prodrug 7.5 mg/kg",1.8 ^f hours
